Remaining binding data for one compound are collected here from paper PMC7206119, “RIP1 inhibition blocks inflammatory diseases but not tumor growth or metastases” (Cell Death and Differentiation, 2019).

Some targets named below: AURKA (Homo sapiens, UniProt O14965); CAMK1D (Homo sapiens, UniProt Q8IU85); CLK4 (Homo sapiens, UniProt Q9HAZ1); EGFR(L858R,T790M) (Homo sapiens, UniProt P00533, L858R/T790M); EPHB6 (Homo sapiens, UniProt O15197); GSK3A (Homo sapiens, UniProt P49840); KIT (Homo sapiens, UniProt P10721); KIT(D816V) (Homo sapiens, UniProt P10721, D816V); MKNK1 (Homo sapiens, UniProt Q9BUB5); MKNK2 (Homo sapiens, UniProt Q9HBH9); NEK6 (Homo sapiens, UniProt Q9HC98); PIK3CA(E545A) (Homo sapiens, UniProt P42336, E545A); ROCK1 (Homo sapiens, UniProt Q13464).

Common to all, as to experiment: biochemical
Set-up in all cases: DiscoverX kinase panel, active-site competition binding (KINOMEscan type), percent of control at one concentration
What all share (conditions): competition binding, percent of control

In another assay the target is T1, ABL1-nonphosphorylated (Homo sapiens, UniProt P00519).
T1 construct: nonphosphorylated

The target of assay [1] is T2, JAK1(JH2domain-pseudokinase) (Homo sapiens, UniProt P23458).
T2 construct: JH2domain-pseudokinase

For another assay, the target named is T3, PYK2 (Homo sapiens, UniProt Q14289).
T3 construct: gene PTK2B

Assay [2] deals with T4, RPS6KA4(Kin.Dom.2-C-terminal) (Homo sapiens, UniProt O75676).
T4 construct: Kin.Dom.2-C-terminal

The target of assay [3] is T5, RSK1(Kin.Dom.1-N-terminal) (Homo sapiens, UniProt Q15418).
T5 construct: gene RPS6KA1; Kin.Dom.1-N-terminal

The next assay deals with T6, S6K1 (Homo sapiens, UniProt P23443).
T6 construct: gene RPS6KB1

The target in another assay is T7, VEGFR2 (Homo sapiens, UniProt P35968).
T7 construct: gene KDR

The target in a further assay is T8, YANK1 (Homo sapiens, UniProt Q8WU08).
T8 construct: gene STK32A
T8 sequence (Q8WU08 whole entry): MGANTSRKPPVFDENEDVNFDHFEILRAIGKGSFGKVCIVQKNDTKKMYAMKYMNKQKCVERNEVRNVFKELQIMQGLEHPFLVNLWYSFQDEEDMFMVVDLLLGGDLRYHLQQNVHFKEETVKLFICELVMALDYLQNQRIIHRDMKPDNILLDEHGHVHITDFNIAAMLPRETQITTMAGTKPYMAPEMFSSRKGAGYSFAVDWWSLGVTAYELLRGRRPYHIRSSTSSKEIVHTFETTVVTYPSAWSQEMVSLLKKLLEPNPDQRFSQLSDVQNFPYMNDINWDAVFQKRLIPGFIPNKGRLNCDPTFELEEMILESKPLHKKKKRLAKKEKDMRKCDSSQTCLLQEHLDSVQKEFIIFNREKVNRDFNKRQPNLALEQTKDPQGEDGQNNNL

NEK6, sequence (Q9HC98 whole entry): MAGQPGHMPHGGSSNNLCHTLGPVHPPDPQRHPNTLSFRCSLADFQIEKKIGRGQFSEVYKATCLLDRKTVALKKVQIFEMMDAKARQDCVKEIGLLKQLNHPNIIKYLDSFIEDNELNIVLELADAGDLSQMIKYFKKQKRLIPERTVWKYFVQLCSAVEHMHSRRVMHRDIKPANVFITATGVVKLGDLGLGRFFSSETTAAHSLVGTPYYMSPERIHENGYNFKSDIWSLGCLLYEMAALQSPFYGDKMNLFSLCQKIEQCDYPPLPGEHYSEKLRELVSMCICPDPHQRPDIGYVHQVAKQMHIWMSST
GSK3A, sequence (P49840 whole entry): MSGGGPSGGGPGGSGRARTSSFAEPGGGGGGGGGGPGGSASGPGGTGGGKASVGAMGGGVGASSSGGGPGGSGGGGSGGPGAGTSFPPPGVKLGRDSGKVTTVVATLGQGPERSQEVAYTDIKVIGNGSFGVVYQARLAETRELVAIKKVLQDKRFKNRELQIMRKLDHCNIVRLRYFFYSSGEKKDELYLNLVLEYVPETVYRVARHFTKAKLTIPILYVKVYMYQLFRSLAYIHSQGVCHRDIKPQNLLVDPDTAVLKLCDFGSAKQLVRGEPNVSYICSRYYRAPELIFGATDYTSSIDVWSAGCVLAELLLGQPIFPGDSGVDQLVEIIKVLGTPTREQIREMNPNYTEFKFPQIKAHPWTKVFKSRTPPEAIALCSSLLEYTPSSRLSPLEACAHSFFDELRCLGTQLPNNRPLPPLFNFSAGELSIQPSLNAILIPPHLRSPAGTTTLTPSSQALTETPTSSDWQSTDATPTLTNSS
MKNK1, sequence (Q9BUB5 whole entry): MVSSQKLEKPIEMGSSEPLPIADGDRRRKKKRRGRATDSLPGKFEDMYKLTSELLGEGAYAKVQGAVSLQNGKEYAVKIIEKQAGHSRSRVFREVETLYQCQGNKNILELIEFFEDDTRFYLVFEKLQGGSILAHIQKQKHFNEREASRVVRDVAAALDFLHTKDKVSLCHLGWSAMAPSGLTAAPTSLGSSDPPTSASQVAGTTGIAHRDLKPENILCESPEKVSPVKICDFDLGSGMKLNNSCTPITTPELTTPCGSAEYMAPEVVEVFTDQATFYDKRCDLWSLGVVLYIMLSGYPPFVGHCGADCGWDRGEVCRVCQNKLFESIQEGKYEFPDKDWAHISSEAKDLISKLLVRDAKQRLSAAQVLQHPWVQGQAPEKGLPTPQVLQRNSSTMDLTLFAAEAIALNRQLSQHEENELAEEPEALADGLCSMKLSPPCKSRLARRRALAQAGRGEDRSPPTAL
CAMK1D, sequence (Q8IU85 whole entry): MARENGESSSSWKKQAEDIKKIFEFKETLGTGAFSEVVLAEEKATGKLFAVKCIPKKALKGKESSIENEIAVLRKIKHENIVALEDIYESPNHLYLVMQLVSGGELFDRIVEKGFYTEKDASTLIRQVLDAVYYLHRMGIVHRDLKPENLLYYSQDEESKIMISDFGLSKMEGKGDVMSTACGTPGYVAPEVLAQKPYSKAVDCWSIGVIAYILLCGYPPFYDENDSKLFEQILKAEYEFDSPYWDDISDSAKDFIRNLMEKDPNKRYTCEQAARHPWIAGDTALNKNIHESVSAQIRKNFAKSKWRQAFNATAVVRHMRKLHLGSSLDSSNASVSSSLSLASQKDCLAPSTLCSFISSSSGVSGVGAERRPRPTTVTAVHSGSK
CLK4, sequence (Q9HAZ1 whole entry): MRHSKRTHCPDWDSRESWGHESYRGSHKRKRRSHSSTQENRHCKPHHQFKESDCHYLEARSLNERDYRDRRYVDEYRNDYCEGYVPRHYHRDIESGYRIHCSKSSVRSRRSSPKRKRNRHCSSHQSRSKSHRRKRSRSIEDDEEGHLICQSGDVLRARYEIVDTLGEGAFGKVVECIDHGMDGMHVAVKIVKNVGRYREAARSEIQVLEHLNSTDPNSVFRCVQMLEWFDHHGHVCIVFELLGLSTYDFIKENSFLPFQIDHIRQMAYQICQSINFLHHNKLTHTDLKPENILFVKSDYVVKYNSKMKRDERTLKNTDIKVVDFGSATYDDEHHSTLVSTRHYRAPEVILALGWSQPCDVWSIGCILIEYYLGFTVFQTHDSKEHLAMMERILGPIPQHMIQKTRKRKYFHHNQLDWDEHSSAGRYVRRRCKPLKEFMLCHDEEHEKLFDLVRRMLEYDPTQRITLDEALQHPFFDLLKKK
T1 sequence (P00519 whole entry): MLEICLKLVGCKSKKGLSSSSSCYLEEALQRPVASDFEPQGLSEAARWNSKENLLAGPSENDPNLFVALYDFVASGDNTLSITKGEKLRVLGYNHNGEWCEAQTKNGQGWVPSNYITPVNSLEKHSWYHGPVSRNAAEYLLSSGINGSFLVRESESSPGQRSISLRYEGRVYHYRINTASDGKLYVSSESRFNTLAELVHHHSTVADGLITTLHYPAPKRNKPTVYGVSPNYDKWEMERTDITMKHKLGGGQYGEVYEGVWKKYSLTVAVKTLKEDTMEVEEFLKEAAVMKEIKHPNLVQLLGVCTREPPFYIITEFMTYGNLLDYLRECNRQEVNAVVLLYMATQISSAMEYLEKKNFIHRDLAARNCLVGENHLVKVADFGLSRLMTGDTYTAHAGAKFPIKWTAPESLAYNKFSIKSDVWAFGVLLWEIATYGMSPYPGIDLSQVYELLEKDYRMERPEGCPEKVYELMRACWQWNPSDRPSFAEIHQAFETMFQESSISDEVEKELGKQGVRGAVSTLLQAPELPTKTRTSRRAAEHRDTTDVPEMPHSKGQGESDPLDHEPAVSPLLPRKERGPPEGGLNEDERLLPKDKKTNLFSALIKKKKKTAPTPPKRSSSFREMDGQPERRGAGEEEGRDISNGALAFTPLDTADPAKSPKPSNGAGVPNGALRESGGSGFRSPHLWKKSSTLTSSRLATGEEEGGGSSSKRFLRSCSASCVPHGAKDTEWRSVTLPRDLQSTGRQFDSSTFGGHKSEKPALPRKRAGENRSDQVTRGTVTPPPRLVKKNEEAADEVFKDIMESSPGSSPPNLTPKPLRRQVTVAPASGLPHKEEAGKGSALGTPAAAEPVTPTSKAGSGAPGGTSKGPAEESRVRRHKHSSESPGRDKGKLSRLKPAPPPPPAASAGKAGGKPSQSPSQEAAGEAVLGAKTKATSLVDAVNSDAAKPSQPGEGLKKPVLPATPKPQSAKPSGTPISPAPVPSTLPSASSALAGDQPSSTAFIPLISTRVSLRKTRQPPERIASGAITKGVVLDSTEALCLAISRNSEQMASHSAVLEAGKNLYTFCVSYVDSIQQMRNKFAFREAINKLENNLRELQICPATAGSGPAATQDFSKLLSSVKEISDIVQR
AURKA, sequence (O14965 whole entry): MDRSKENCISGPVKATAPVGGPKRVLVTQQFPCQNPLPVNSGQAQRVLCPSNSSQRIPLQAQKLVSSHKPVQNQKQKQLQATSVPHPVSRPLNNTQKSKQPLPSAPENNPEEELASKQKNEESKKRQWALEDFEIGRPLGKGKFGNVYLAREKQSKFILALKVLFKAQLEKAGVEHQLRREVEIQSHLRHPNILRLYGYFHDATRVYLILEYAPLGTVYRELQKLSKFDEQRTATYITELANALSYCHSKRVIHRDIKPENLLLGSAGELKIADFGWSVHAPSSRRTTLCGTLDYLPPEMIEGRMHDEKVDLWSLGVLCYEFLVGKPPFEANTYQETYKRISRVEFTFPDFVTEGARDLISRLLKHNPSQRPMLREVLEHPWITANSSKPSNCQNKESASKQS
T5 sequence (Q15418 whole entry): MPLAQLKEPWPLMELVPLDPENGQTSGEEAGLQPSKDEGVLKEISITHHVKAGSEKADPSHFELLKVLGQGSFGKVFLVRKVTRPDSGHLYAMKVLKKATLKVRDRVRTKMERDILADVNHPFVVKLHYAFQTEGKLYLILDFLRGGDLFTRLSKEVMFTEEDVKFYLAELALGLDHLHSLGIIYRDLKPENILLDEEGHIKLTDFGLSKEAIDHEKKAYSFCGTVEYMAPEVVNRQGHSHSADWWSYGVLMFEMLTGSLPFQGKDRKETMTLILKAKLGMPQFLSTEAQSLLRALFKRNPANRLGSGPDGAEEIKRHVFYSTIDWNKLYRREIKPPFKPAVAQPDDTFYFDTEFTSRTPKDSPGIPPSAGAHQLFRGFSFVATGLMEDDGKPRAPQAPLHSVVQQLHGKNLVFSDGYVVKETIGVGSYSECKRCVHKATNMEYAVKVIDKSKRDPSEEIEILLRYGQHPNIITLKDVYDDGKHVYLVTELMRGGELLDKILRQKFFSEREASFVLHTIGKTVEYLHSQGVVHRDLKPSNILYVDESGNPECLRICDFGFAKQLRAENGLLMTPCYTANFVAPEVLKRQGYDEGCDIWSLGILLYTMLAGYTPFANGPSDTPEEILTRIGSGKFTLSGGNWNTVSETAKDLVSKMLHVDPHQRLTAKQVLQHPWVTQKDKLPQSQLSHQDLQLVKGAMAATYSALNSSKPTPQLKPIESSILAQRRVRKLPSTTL

As for `COc1cc2c(cn1)N(C)C(=O)[C@@H](NC(=O)c1nc3n(n1)[C@H](c1ccccc1)CC3)CC2` [GNE684, (S)-N-((S)-7-methoxy-1-methyl-2-oxo-2,3,4,5-tetrahydro-1H-pyrido[3,4-b]azepin-3-yl)-5-phenyl-6,7-dihydro-5H-pyrrolo[1,2-b][1,2,4]triazole-2-carboxamide], the remaining binding at 10 µM at ABL1-nonphosphorylated was determined as 67%; at AURKA it was 96%; on CAMK1D, 98%; on CLK4, 95%; at EGFR(L858R,T790M), 100%; on EPHB6 it was 100%. For the same compound, the remaining binding at 10 µM at GSK3A amounted to 63%; in [1], 48%; at KIT, 95%; on KIT(D816V) it was 100%; at MKNK1, 100%; at MKNK2, 96%. The remaining binding at 10 µM is 85% at NEK6; 100% on PIK3CA(E545A); 92% on PYK2; 100% at ROCK1; 100% in assay [2]; 98% in assay [3]. The remaining binding at 10 µM amounted to 88% on S6K1, 93% at VEGFR2 and 100% on YANK1.
